Source: patent US20150132229A1, “BIS AZAINOSITOL HEAVY METAL COMPLEXES FOR X-RAY IMAGING” (BAYER PHARMA AKTIENGESELLSCHAFT, priority 2012, published 2015)
Each block holds one substance with its values, some of them ahead of it.

Legend:
[1] = Pharmacokinetics in rats (Hafnium blood concentration by ICP-MS, 3-compartment model); type: in vivo; details: i.v. 150 mg Hf/kg
Description: An aqueous solution of [Hf3(H−3tacitp)2](in 10 mM trometamol buffer, pH 7.4, 60 mg Hf/mL) was injected in the tail vein of 3 rats (ca. 250 g) at a dose of 150 mg Hf/kg. Blood samples were collected via a catheter from the arteria carotis at the following times: 1, 2, 5, 10, 15, 30, 60, 90, 120, 240, 360 and 1440 min after injection.
The Hafnium concentration in all blood samples was determined after digestion in oxidizing solution (nitric acid and hydrogen peroxide) at elevated pressure and temperature. The measurement of Hafnium was performed by ICP-MS.
The pharmacokinetic parameters were obtained for each animal by fitting the blood concentrations to a 3-compartment model, using the software WinNonlin.

[2] = Excretion in rats (Hafnium in urine, faeces, organs and carcass by ICP-MS); type: in vivo; details: i.v. 150 mg Hf/kg
Description: An aqueous solution of [Hf3(H−3tacitp)2](in 10 mM trometamol buffer, pH 7.4, 60 mg Hf/mL) was injected in the tail vein of 3 rats (ca. […]) at a dose of 150 mg Hf/kg. Urine samples were collected at the following time intervals: 0-0.5, 0.5-1, 1-3, 3-6, 6-24 h and then daily until day 7. Faeces was collected daily until day 7. On day 7 the animals were sacrificed and the following organs were excised: liver, kidneys, spleen, heart, lung, brain, lymph nodes, muscle, gut, duodenum, skin, bone marrow, bone. The remaining body was freeze dried and ground to obtain a fine powder.
The Hafnium concentration in all specimen was determined after digestion in oxidizing solution (nitric acid and hydrogen peroxide) at elevated pressure and temperature. The measurement of Hafnium was performed by ICP-MS.

[3] = Stability of bis azainositol heavy metal complexes under heat sterilization (121° C., 45 min, pH 7.4; HPLC and ICP-OES); details: aqueous buffered solution pH 7.4, 5 mmol/L, 121° C. for 45 min in steam autoclave; absolute stability = HPLC peak area ratio x metal concentration ratio after/before
Description: The stability of bis azainositol heavy metal complexes was determined in aqueous, buffered solution at pH 7.4. The solution containing 5 mmol/L of the compound in a tightly sealed vessel was heated to 121° C. for 45 min in a steam autoclave. The metal concentration of the solution was determined by ICP-OES before and after heat treatment. The integrity of the compound was determined by HPLC analysis before and after heat treatment. Absolute stability was calculated as the ratio of the peak area of the compound after and before the heat treatment multiplied with the ratio of the metal concentration of the solution after and before heat treatment.
Column: Reversed phase C18. […] Solvent B: methanol, HPLC grade Gradient: gradients starting from 100% A and 0% B were used. Flow: 1 mL/min Detector D1: element specific detection by ICP-OES running at the most sensitive emission wavelength of the respective complexed metal. Detector D2: element specific detection by ICP-MS running at the most abundant isotope of the respective complexed metal.

Han-Wistar rat = test: Preclinical X-ray imaging: contrast enhanced CT of an anaesthetized rat; type: in vivo; details: i.v. tail vein, 200 mg Lu per kg body weight, 149 mg Lu/mL, 120 kV
Description: The study was performed on a clinical CT unit (Sensation 64, Siemens Medical Solutions, Erlangen, Germany) with an anaesthetized rat. The compound described in example 2 was used as X-ray diagnostic agents in order to perform contrast enhanced CT imaging.
The study was performed on a healthy Han-Wistar rat. Initial anaesthesia was induced by inhalation of 4% Isoflurane (Baxter Deutschland GmbH, Unterschleiβheim, Germany) and maintained by 1.5% Isoflurane. The X-ray diagnostic agent (Example 2) at a concentration of 149 mg Lu/mL was administered intravenously via the tail vein by the help of a dedicated injection pump (flow rate=0.6 mL/s). A dosage of 200 mg Lu per kg body weight was used. In order to simulate a clinical condition the rat was placed within a tissue equivalent phantom (QRM, Möhrendorf, Germany) that mimics the human abdomen in respect of X-ray absorption.
An X-ray projection image (topogram) was acquired to adjust the measurement range to the thoracal region of the animal. The subsequent contrast enhanced measurement was done with following CT parameter settings: X-ray tube voltage=120 kV, mAs-product=160 mAs, tube rotational time=0.5 s, slice thickness=2.4 mm, measurement time=20 s. […]
The signal-time course in the left heart chamber was quantified by a region of interest analysis. […]

mice = test: Tolerability in mice (behaviour and survival after 7 d); type: in vivo; details: i.v. tail vein
Description: An aqueous solution of Na3[Lu3(H−3tacita)2](in 10 mM trometamol buffer, pH 7.4, 148 mg Lu/mL) was injected in the tail vein of 1-3 mice for each dose group (22-25 g) at increasing doses ranging from 1000 to 3000 mg Lu/kg. The behaviour of the animals and the survival after 7 d was recorded.

total plasma clearance [1]: 10 ± 0.6 mL/min/kg
blood half live ([1]; elimination phase): 22.6 ± 3.1 min
volume of distribution ([1]; elimination phase): 0.31±0.01 I/kg
injected Hafnium excreted via the urine ([2]; after 1 d, cumulative): 96%
injected Hafnium found in all organs and the carcass together ([2]; after 7 d): 0.33%
injected Hafnium excreted via the urine ([2]; after 7 d, cumulative): 97%
injected Hafnium found in faeces ([2]; after 7 d, cumulative): About 1.3%
Substance: Bis{μ3-[(all-cis)-2-{[(carboxy-1κO)ethyl]amino-1κN}-4-{[(carboxy-2κO)ethyl]amino-2κN}-6-{[(carboxy-3κO)ethyl]amino-3κN}cyclohexane-1,3,5-triolate-1κ^2O^1,O^3:2κ^2O^3,O^5:3κ^2O^1,O^5]}trihafnium(IV) [Example 13]
Hafnium content of organs other than kidney ([2]; after 7 d): ≤ 0.01 % of the injected dose/g organ (wet weight)

Substance: Bis{μ3-[(all-cis)-2-{[(carboxy-1κO)methyl]amino-1κN}-4-{[(carboxy-2κO)methyl]amino-2κN}-6-{[(carboxy-3κO)methyl]amino-3κN}cyclohexane-1,3,5-triolate-1κ^2O^1,O^3:2κ^2O^3,O^5:3κ^2O^1,O^5]}trihafnium(IV) [Example 1]
Stability [3]: 102%

Stability [3]: 96%
Substance: Trisodium bis{μ3-(all-cis)-2-{[(carboxy-1κO)ethyl](methyl)-amino-1κN}-4-{[(carboxy-2κO)ethyl](methyl)amino-2κN}-6-{[(carboxy-3κO)ethyl]-(methyl)amino-3κN}cyclohexane-1,3,5-triolate-1κ^2O^1,O^3:2κ^2O^3,O^5:3κ^2O^1,O^5]}triytterbate(II) [Example 23]

Stability [3]: 90%
Substance: Trisodium bis{μ3-[(all-cis)-2-{[(carboxy-1κO)ethyl](methyl)-amino-1κN}-4-{[(carboxy-2κO)ethyl](methyl)amino-2κN}-6-{[(carboxy-3κO)ethyl]-(methyl)amino-3κN}cyclohexane-1,3,5-triolate-1κ^2O^1,O^3:2κ^2O^3,O^5:3κ^2O^1,O^5]}trilutetate(III) [Example 19]

Substance: Trisodium bis{μ3-[(all-cis)-2-{[(carboxy-1κO)methyl]amino-1κN}-4-{[(carboxy-2κO)methyl]amino-2κN}-6-{[(carboxy-3κO)methyl]amino-3κN}cyclohexane-1,3,5-triolate-1κ^2O^1,O^3:2κ^2O^3,O^5:3κ^2O^1,O^5]}trilutetate(III) [Example 2]
CT signal change in blood vessels and heart chambers during passage of the diagnostic agent (Han-Wistar rat): strong signal increase
Stability [3]: 100%
survival after 7 d (mice; 1000 mg Lu/kg): all animals survived
survival after 7 d (mice; 2000 mg Lu/kg): all animals survived
survival after 7 d (mice; 2500 mg Lu/kg): all animals survived
survival after 7 d (mice; 3000 mg Lu/kg): 2 of 3 animals died
